Converted amounts (≈) assume the structure as drawn.
Columns and labels:
M. tuberculosis 27294 = test: In vitro agar dilution assay (MIC), reference strain; format: cell-based, Mycobacterium tuberculosis; settings: for MIC against M. tuberculosis 27294: Middlebrook 7H10; for MIC: Mycobacterium tuberculosis, 27294, Middlebrook 7H10, read-out: MIC against M. tuberculosis 27294
[1] = system: M. tuberculosis clinical isolates, sensitive; test: microbe, parasite or virus in culture; format: cell-based, Mycobacterium tuberculosis; settings: for MIC against Clinical isolates Sensitive: Table I, agar dilution; for MIC: Mycobacterium tuberculosis, read-out: MIC against Clinical isolates Sensitive

## O=C(CCC(=O)c1ccccc1)NC[C@H]1CN(c2ccc(N3CCOCC3)c(F)c2)C(=O)O1 [Compound 1, (S)-N-[[3-(3-fluoro-4-morpholinylphenyl)-2-oxo-5-oxazolidinyl]methyl]-4-oxo-4-phenylbutanamide]
M. tuberculosis 27294
  MIC against M. tuberculosis 27294: 16 µg/mL (≈ 35.1 µM)
[1]
  MIC against Clinical isolates Sensitive: 4 to 16 µg/mL

## Cc1ccc(C(=O)CCC(=O)NC[C@H]2CN(c3ccc(N4CCOCC4)c(F)c3)C(=O)O2)cc1 [Compound 2, (S)-N-[[3-(3-fluoro-4-morpholinylphenyl)-2-oxo-5-oxazolidinyl]methyl]-4-(4-methylphenyl)-4-oxobutanamide]
M. tuberculosis 27294
  MIC against M. tuberculosis 27294: 8 µg/mL (≈ 17 µM)
[1]
  MIC against Clinical isolates Sensitive: 8 µg/mL (≈ 17 µM)

## O=C(CCC(=O)c1ccccc1)NC[C@H]1CN(c2ccc(N3CCSCC3)c(F)c2)C(=O)O1 [Compound 8, (S)-N-[[3-(3-fluoro-4-thiomorpholinylphenyl)-2-oxo-5-oxazolidinyl]methyl]-4-oxo-4-phenylbutanamide]
M. tuberculosis 27294
  MIC against M. tuberculosis 27294: 2 µg/mL (≈ 4.24 µM)
[1]
  MIC against Clinical isolates Sensitive: .5 to 2 µg/mL

## COc1ccc(C(=O)CCC(=O)NC[C@H]2CN(c3ccc(N4CCOCC4)c(F)c3)C(=O)O2)cc1 [Compound 13, (S)-N-[[3-(3-fluoro-4-morpholinylphenyl)-2-oxo-5-oxazolidinyl]methyl]-4-(4-methoxyphenyl)-4-oxobutanamide]
M. tuberculosis 27294
  MIC against M. tuberculosis 27294: 2 µg/mL (≈ 4.12 µM)
[1]
  MIC against Clinical isolates Sensitive: 2 µg/mL (≈ 4.12 µM)

## O=C(CCC(=O)c1ccc(Cl)cc1)NC[C@H]1CN(c2ccc(N3CCOCC3)c(F)c2)C(=O)O1 [Compound 14, (S)-N-[[3-(3-fluoro-4-morpholinylphenyl)-2-oxo-5-oxazolidinyl]methyl]-4-(4-chlorophenyl)-4-oxobutanamide]
M. tuberculosis 27294
  MIC against M. tuberculosis 27294: 0.25 µg/mL (≈ 0.51 µM)
[1]
  MIC against Clinical isolates Sensitive: 0.25 to 0.5 µg/mL

## Cc1ccc(C(=S)CCC(=O)NC[C@H]2CN(c3ccc(N4CCOCC4)c(F)c3)C(=O)O2)cc1 [Compound 15, (S)-N-[[3-(3-fluoro-4-morpholinylphenyl)-2-oxo-5-oxazolidinyl]methyl]-4-(4-methylphenyl)-4-thiooxobutanamide]
M. tuberculosis 27294
  MIC against M. tuberculosis 27294: >16 µg/mL
[1]
  MIC against Clinical isolates Sensitive: >16 µg/mL

## O=C(CCC(=O)c1ccc2ccccc2c1)NC[C@H]1CN(c2ccc(N3CCOCC3)c(F)c2)C(=O)O1 [Compound 16, (S)-N-[[3-(3-fluoro-4-morpholinylphenyl)-2-oxo-5-oxazolidinyl]methyl]-4-(4-2-naphthyl)-4-oxobutanamide]
M. tuberculosis 27294
  MIC against M. tuberculosis 27294: 0.5 µg/mL (≈ 0.989 µM)
[1]
  MIC against Clinical isolates Sensitive: 0.5 µg/mL (≈ 0.989 µM)

## CC(C)Cc1ccc(C(=O)CCC(=O)NC[C@H]2CN(c3ccc(N4CCOCC4)c(F)c3)C(=O)O2)cc1 [Compound 17]
M. tuberculosis 27294
  MIC against M. tuberculosis 27294: 0.5 µg/mL (≈ 0.977 µM)
[1]
  MIC against Clinical isolates Sensitive: 1.0 µg/mL (≈ 1.95 µM)

## O=C(CCC(=O)c1ccc(F)cc1F)NC[C@H]1CN(c2ccc(N3CCOCC3)c(F)c2)C(=O)O1 [Compound 18, (S)-N-[[3-(3-fluoro-4-morpholinylphenyl)-2-oxo-5-oxazolidinyl]methyl]-4-(2,4-difluorophenyl)-4-oxobutanamide]
M. tuberculosis 27294
  MIC against M. tuberculosis 27294: 4− μg/ml
[1]
  MIC against Clinical isolates Sensitive: 1 to 4 µg/mL

## O=C(CCC(=O)c1cccs1)NC[C@H]1CN(c2ccc(N3CCOCC3)c(F)c2)C(=O)O1 [Compound 19, (S)-N-[[3-(3-fluoro-4-morpholinylphenyl)-2-oxo-5-oxazolidinyl]methyl]-4-oxo-4-(2-thienyl)butanamide]
M. tuberculosis 27294
  MIC against M. tuberculosis 27294: 2 µg/mL (≈ 4.33 µM)
[1]
  MIC against Clinical isolates Sensitive: 1 to 2 µg/mL

## CSc1ccc(C(=O)CCC(=O)NC[C@H]2CN(c3ccc(N4CCOCC4)c(F)c3)C(=O)O2)cc1 [Compound 21, (S)-N-[[3-(3-fluoro-4-morpholinylphenyl)-2-oxo-5-oxazolidinyl]methyl]-4-oxo-4-(4-thiomethyl)phenylbutanamide]
M. tuberculosis 27294
  MIC against M. tuberculosis 27294: 0.5 µg/mL (≈ 0.997 µM)
[1]
  MIC against Clinical isolates Sensitive: 0.5 to 2 µg/mL

## Cc1ccc(C(=O)CCC(=O)NC[C@H]2CN(c3ccc(N4CCOCC4)c(F)c3)C(=O)O2)c(C)c1 [Compound 25, (S)-N-[[3-(3-fluoro-4-morpholinylphenyl)-2-oxo-5-oxazolidinyl]methyl]-4-(2,4-dimethylphenyl)-4-oxobutanamide]
M. tuberculosis 27294
  MIC against M. tuberculosis 27294: 4 µg/mL (≈ 8.27 µM)
[1]
  MIC against Clinical isolates Sensitive: 4 to 16 µg/mL

## Cc1ccc(C(=O)CCC(=O)NC[C@H]2CN(c3ccc(-n4nnc5ccccc54)c(F)c3)C(=O)O2)c(C)c1 [Compound 27, (S)-N-[[3-(3-fluoro-4-benzotriazolylphenyl)-2-oxo-5-oxazolidinyl]methyl]-4-(2,4-dimethylphenyl)-4-oxobutanamide]
M. tuberculosis 27294
  MIC against M. tuberculosis 27294: >16 µg/mL
[1]
  MIC against Clinical isolates Sensitive: >16 µg/mL

## O=C(CCC(=O)c1cccs1)NC[C@H]1CN(c2ccc(N3CCCC3)c(F)c2)C(=O)O1 [Compound 28, (S)-N-[[3-(3-fluoro-4-pyrrolidinylphenyl)-2-oxo-5-oxazolidinyl]methyl]-4-oxo-4-(2-thienyl)butanamide]
M. tuberculosis 27294
  MIC against M. tuberculosis 27294: 0.5 µg/mL (≈ 1.12 µM)
[1]
  MIC against Clinical isolates Sensitive: 1 to 2 µg/mL

## O=C(CCC(=O)c1cccs1)NC[C@H]1CN(c2ccc([N+]3([O-])CCOCC3)c(F)c2)C(=O)O1 [Compound 31, (S)-N-[[3-(3-fluoro-4-morpholinylphenyl)-2-oxo-5-oxazolidinyl]methyl]-4-oxo-4-(2-thienyl)butanamide-N-oxide]
M. tuberculosis 27294
  MIC against M. tuberculosis 27294: 1 µg/mL (≈ 2.09 µM)
[1]
  MIC against Clinical isolates Sensitive: 1 to 2 µg/mL

## O=C(CCC(=O)c1ccc(Cl)cc1)NC[C@H]1CN(c2ccc([N+]3([O-])CCOCC3)c(F)c2)C(=O)O1 [Compound 32, (S)-N-[[3-(3-fluoro-4-morpholinylphenyl)-2-oxo-5-oxazolidinyl]methyl]-4-(4-chlorophenyl)-4-oxobutanamide-N-oxide]
M. tuberculosis 27294
  MIC against M. tuberculosis 27294: 0.25 µg/mL (≈ 0.494 µM)
[1]
  MIC against Clinical isolates Sensitive: 0.25 to 0.5 µg/mL

## CC(C)Cc1ccc(C(=O)CCC(=O)NC[C@H]2CN(c3ccc([N+]4([O-])CCOCC4)c(F)c3)C(=O)O2)cc1 [Compound 33]
M. tuberculosis 27294
  MIC against M. tuberculosis 27294: 0.5 µg/mL (≈ 0.948 µM)
[1]
  MIC against Clinical isolates Sensitive: 1 µg/mL (≈ 1.9 µM)

## O=C(C=CC(=O)c1ccccc1)NC[C@H]1CN(c2ccc(N3CCOCC3)c(F)c2)C(=O)O1 [Compound 34, (S)-N-[[3-(3-fluoro-4-morpholinylphenyl)-2-oxo-5-oxazolidinyl]methyl]-4-oxo-4-phenylbut-2-enamide]
M. tuberculosis 27294
  MIC against M. tuberculosis 27294: >16 µg/mL
[1]
  MIC against Clinical isolates Sensitive: >16 µg/mL

## COc1ccc(C(=O)CCC(=O)NC[C@H]2CN(c3ccc(N4CCCCC4)c(F)c3)C(=O)O2)cc1 [Compound 35, (S)-N-[[3-(3-fluoro-4-piperidylphenyl)-2-oxo-5-oxazolidinyl]methyl]-4-(4-methoxyphenyl)-4-oxobutanamide]
M. tuberculosis 27294
  MIC against M. tuberculosis 27294: 4 µg/mL (≈ 8.27 µM)
[1]
  MIC against Clinical isolates Sensitive: 2 to 4 µg/mL

## O=C(CCC(=O)c1ccc(Cl)cc1)NC[C@H]1CN(c2ccc(N3CCCCC3)c(F)c2)C(=O)O1 [Compound 36, (S)-N-[[3-(3-fluoro-4-piperidylphenyl)-2-oxo-5-oxazolidinyl]methyl]-4-(4-chlorophenyl)-4-oxobutanamide]
M. tuberculosis 27294
  MIC against M. tuberculosis 27294: 4 µg/mL (≈ 8.2 µM)
[1]
  MIC against Clinical isolates Sensitive: 4 to 8 µg/mL

## O=C(CCC(=O)c1ccc(Cl)cc1)NC[C@H]1CN(c2ccc(-n3nnc4ccccc43)c(F)c2)C(=O)O1 [Compound 39, (S)-N-[[3-(3-fluoro-4-benzotriazolylphenyl)-2-oxo-5-oxazolidinyl]methyl]-4-(4-chlorophenyl)-4-oxobutanamide]
M. tuberculosis 27294
  MIC against M. tuberculosis 27294: 2 µg/mL (≈ 3.83 µM)
[1]
  MIC against Clinical isolates Sensitive: 2 to 4 µg/mL

## Cc1ccc(C(=O)CCC(=O)NC[C@H]2CN(c3ccc(-c4nc[nH]n4)c(F)c3)C(=O)O2)c(C)c1 [Compound 43, (S)-N-[[3-(3-fluoro-4-(1,2,4-triazolyl)phenyl)-2-oxo-5-oxazolidinyl]methyl]-4-(2,4-dimethylphenyl)-4-oxobutanamide]
M. tuberculosis 27294
  MIC: 1 µg/mL (≈ 2.15 µM)
[1]
  MIC: 0.5 to 1 µg/mL (≈ 1.07 to 2.15 µM)

## CSc1ccc(C(=O)CCC(=O)NC[C@H]2CN(c3ccc(-n4cncn4)c(F)c3)C(=O)O2)cc1 [Compound 44, (S)-N-[[3-(3-fluoro-4-(1,2,4-triazolyl)phenyl)-2-oxo-5-oxazolidinyl]methyl]-4-oxo-4-(4-thiomethylphenyl)butanamide]
M. tuberculosis 27294
  MIC against M. tuberculosis 27294: 1 µg/mL (≈ 2.07 µM)
[1]
  MIC against Clinical isolates Sensitive: 0.5 to 2 µg/mL

## CCCc1ccc(C(=O)CCC(=O)NC[C@H]2CN(c3ccc(-c4nc[nH]n4)c(F)c3)C(=O)O2)c(C)c1 [Compound 46, (S)-N-[[3-(3-fluoro-4-(1,2,4-triazolyl)phenyl)-2-oxo-5-oxazolidinyl]methyl]-4-(2′-methyl-4-propylphenyl)-4-oxobutanamide]
M. tuberculosis 27294
  MIC: 2 µg/mL (≈ 4.05 µM)
[1]
  MIC: 2 to 4 µg/mL (≈ 4.05 to 8.1 µM)

## O=C(CCC(=O)c1cccs1)NC[C@H]1CN(c2ccc(-c3nc[nH]n3)c(F)c2)C(=O)O1 [Compound 47, (S)-N-[[3-(3-fluoro-4-(1,2,4-triazolyl)phenyl)-2-oxo-5-oxazolidinyl]methyl]-4-oxo-4-(2-thienyl)butanamide]
M. tuberculosis 27294
  MIC: 1 µg/mL (≈ 2.25 µM)
[1]
  MIC: 1 to 2 µg/mL (≈ 2.25 to 4.51 µM)

## O=C(CCC(=O)c1ccc(F)cc1F)NC[C@H]1CN(c2ccc(-c3nc[nH]n3)c(F)c2)C(=O)O1 [Compound 51, (S)-N-[[3-(3-fluoro-4-(1,2,4-triazolyl)phenyl)-2-oxo-5-oxazolidinyl]methyl]-4-(2,4-difluorophenyl)-4-oxobutanamide]
M. tuberculosis 27294
  MIC: 8 µg/mL (≈ 16.9 µM)

## O=C(CCC(=O)c1ccc2ccccc2c1)NC[C@H]1CN(c2ccc(N3CCCC3)c(F)c2)C(=O)O1 [Compound 57, (S)-N-[[3-(3-fluoro-4-pyrrolidinylphenyl)-2-oxo-5-oxazolidinyl]methyl]-4-(2-naphthyl)-4-oxobutanamide]
M. tuberculosis 27294
  MIC against M. tuberculosis 27294: 16 µg/mL (≈ 32.7 µM)

## CCCc1ccc(C(=O)CCC(=O)NC[C@H]2CN(c3ccc(N4CCCC4)c(F)c3)C(=O)O2)c(C)c1 [Compound 58, (S)-N-[[3-(3-fluoro-4-pyrrolidinylphenyl)-2-oxo-5-oxazolidinyl]methyl]-4-(2′-methyl-4-propylphenyl)-4-oxobutanamide]
M. tuberculosis 27294
  MIC against M. tuberculosis 27294: 8 µg/mL (≈ 16.1 µM)

Source: patent US7691889B2, “Antimycobacterial compounds” (Lupin Limited, priority 2002, dated 2010)
